Article PMC10053770, “Assessment of the Pharmacokinetics, Disposition, and Duration of Action of the Tumour-Targeting Peptide CEND-1” (International Journal of Molecular Sciences, 2023)
Read-outs that look alike come from different tables or passages of the source.

Columns and labels:
[1] = Clinical pharmacokinetics in patients with metastatic pancreatic ductal adenocarcinoma; type: in vivo, human; conditions: for Vd: 3.2 mg/kg, read-out: Vz
Experimental: In this study, CEND-1 PK data from up to 28 participants receiving either 1.6 mg/kg (n = 14) and 3.2 mg/kg (n = 14) in the expansion cohort were analysed. Details of this phase I clinical study, conducted in patients with metastatic pancreatic ductal adenocarcinoma receiving CEND-1 in combination with nab-paclitaxel and gemcitabine, are described in detail by Dean et al.. PK parameters were measured following CEND-1 monotherapy (run-in day 1) and combination therapy (cycle 1 day 1 and cycle 6 day 1, if applicable).
In the initial monotherapy run-in phase, single doses of CEND-1 were given one to seven days before the start of the combination chemotherapy. In the combination therapy phase, patients first received an intravenous infusion of nab-paclitaxel (125 mg/m^2) over 30 min (±3 min). CEND-1 was then given intravenously as a slow IV push over 1 min (±30 s). The intravenous infusion of gemcitabine (1000 mg/m^2 over 30 min (±3 min)) was started within 10 min of CEND-1 administration. On all occasions, plasma samples were collected from patients before the CEND-1 infusion and at 3 min (±1 min), 15 min (±3 min), 30 min (±3 min), 1 hour (±5 min), ¾ h (±10 min) and 6/8 h (±10 min) after completion of the infusion.
(§1) No formal sample size calculation was performed. Samples of 2–12 animals and 31 pancreatic cancer patients were considered acceptable to perform initial pharmacokinetic evaluations. The concentrations of CEND-1 were used to calculate PK parameters by employing a non-compartmental analysis (Phoenix^TM WinNonlin, version 6.1). The linear log trapezoidal algorithm, with a weighting of 1/Y*Y was used for parameter calculations. Mean PK parameters were calculated from individual animals in each treatment group. Concentrations below the LLOQ (if any) were excluded for the calculation of PK parameters. The mean values of PK parameters were calculated using Microsoft Excel version 2010.

[2] = Single-dose intravenous pharmacokinetics in dogs; type: in vivo, dog; conditions: for clearance: read-out: Cl_obs (converted); for Vd: read-out: V
Experimental: The in vivo pharmacokinetic profile of CEND-1 after a single dose was evaluated in four non-GLP animal studies including Sprague-Dawley rats, Beagle dogs, cynomolgus monkeys and BALB/c mice following the intravenous injection of CEND-1 at various doses ([…]; 1.5, 4.5 and 13.5 mg/kg for mice) (Table 1). Blood samples were collected for pharmacokinetic evaluations pre-dose and at 1, 5, 10, 15 and 30 min, and 1, 2 and 6 h post-dose in rats, dogs and monkeys, and 3, 10, 30 and 90 min, and 4 and 8 h post-dose in mice.
Plasma CEND-1 was quantified by validated liquid chromatography coupled with a tandem mass spectrometry (LC/MS/MS) assay. Tolbutamide or leuprorelin acetate were used as internal standards. AB Sciex Triple Quad API 5500 (Sciex, Framingham, MA, USA), operated in the positive electrospray ionization (ESI) mode, was used to monitor the precursor to production ion transitions of m/z 495.4→69.9.
as §1

[3] = pancreatic cancer patients, 3.2 mg/kg IV, plasma, Cycle 1 Day 1 with nab-paclitaxel+gemcitabine, mean, N=9
[4] = pancreatic cancer patients, 3.2 mg/kg IV, plasma, Cycle 1 Day 1 with nab-paclitaxel+gemcitabine, mean, N=13
[5] = pancreatic cancer patients, 3.2 mg/kg IV, plasma, Cycle 6 Day 1 with nab-paclitaxel+gemcitabine, N=1
[6] = pancreatic cancer patients, 3.2 mg/kg IV, plasma, Cycle 6 Day 1 with nab-paclitaxel+gemcitabine, mean, N=5
[7] = pancreatic cancer patients, 3.2 mg/kg IV, plasma, Run-In (monotherapy), mean, N=7
[8] = pancreatic cancer patients, 3.2 mg/kg IV, plasma, Run-In (monotherapy), mean, N=8
[9] = Beagle dog, F, n=3, 5 mg/kg single IV, plasma LC/MS/MS, non-compartmental, mean (SD)
[10] = Beagle dog, F, n=5, 75 mg/kg single IV, plasma LC/MS/MS, non-compartmental, mean (SD)
[11] = female, Beagle dog, F, n=3, 1 mg/kg single IV, plasma LC/MS/MS, non-compartmental, mean (SD)
[12] = female, Beagle dog, F, n=5, 75 mg/kg single IV, plasma LC/MS/MS, non-compartmental, mean (SD)
[13] = male, Beagle dog, M, n=3, 1 mg/kg single IV, plasma LC/MS/MS, non-compartmental, mean (SD)
[14] = male, Beagle dog, M, n=3, 5 mg/kg single IV, plasma LC/MS/MS, non-compartmental, mean (SD)
[15] = male, Beagle dog, M, n=5, 75 mg/kg single IV, plasma LC/MS/MS, non-compartmental, mean (SD)

CC(=O)N[C@H]1CSSC[C@@H](C(N)=O)NC(=O)[C@H](CC(=O)O)NC(=O)[C@@H]2CCCN2C(=O)CNC(=O)[C@H](CCCCN)NC(=O)[C@H](CC(=O)O)NC(=O)CNC(=O)[C@H](CCCNC(=N)N)NC1=O [CEND-1]
Vd ([1]; human, plasma, iv, pancreatic cancer patients, 3.2 mg/kg IV, plasma, Cycle 1 Day 1 with nab-paclitaxel+gemcitabine, mean, N=9): 0.263 L/kg
Vd ([1]; human, plasma, iv, pancreatic cancer patients, 3.2 mg/kg IV, plasma, Run-In (monotherapy), mean, N=7): 0.269 L/kg
Tmax ([1]; human, plasma, iv, patients, run-in day 1, 1.6 and 3.2 mg/kg, read-out: time of peak plasma concentration (first post-dose PK sampling timepoint) (converted)): 3 min
level at 8 h ([1]; human, plasma, patients, run-in day 1, 1.6 and 3.2 mg/kg IV, SD = 317.9, read-out: mean plasma concentration by 8 h post-dose): 439 ng/mL
AUC0-t ([1]; human, pancreatic cancer patients, 3.2 mg/kg IV, plasma, Cycle 6 Day 1 with nab-paclitaxel+gemcitabine, mean, N=5, read-out: AUC0-t): 30600 ng·h/mL
Cmax ([1]; human, pancreatic cancer patients, 3.2 mg/kg IV, plasma, Cycle 6 Day 1 with nab-paclitaxel+gemcitabine, mean, N=5, read-out: Cmax): 25800 ng/mL
Tmax ([1]; human, pancreatic cancer patients, 3.2 mg/kg IV, plasma, Cycle 6 Day 1 with nab-paclitaxel+gemcitabine, mean, N=5, read-out: Tmax): 3.78 min
AUC0-inf/D [1, 3]: 9592 kg·ng·h/mL
AUC(0-inf) [1, 3]: 30,690 h*ng/mL
CL [1, 3]: 1.792 mL/min/kg
t1/2 [1, 3]: 103.5 min
λlast [1, 3]: 0.4082 h⁻¹
AUC0-t [1, 4]: 28,610 h*ng/mL
AUC0-t/D [1, 4]: 8942 kg·ng·h/mL
Cmax [1, 4]: 24,050 ng/mL
Cmax/D [1, 4]: 7514 kg*ng/mL/m
Tlast [1, 4]: 5.767 h
Tmax [1, 4]: 6.78 min
AUC0-inf/D [1, 5]: 10,440 h*kg*ng/mL
AUC(0-inf) [1, 5]: 33,400 h*ng/mL
CL [1, 5]: 1.6 mL/min/kg
Vz [1, 5]: 0.2209 L/kg
t1/2 [1, 5]: 95.88 min
λlast [1, 5]: 0.4338 h⁻¹
AUC0-t/D [1, 6]: 9558 kg·ng·h/mL
Cmax/D [1, 6]: 8050 kg*ng/mL/m
Tlast [1, 6]: 4.897 h
AUC0-inf/D [1, 7]: 10,800 h*kg*ng/mL
AUC(0-inf) [1, 7]: 34,560 h*ng/mL
CL [1, 7]: 1.63 mL/min/kg
t1/2 [1, 7]: 117.4 min
λlast [1, 7]: 0.3607 h⁻¹
AUC0-t [1, 8]: 31,330 h*ng/mL
AUC0-t/D [1, 8]: 9791 kg·ng·h/mL
Cmax [1, 8]: 31,210 ng/mL
Tlast [1, 8]: 6.725 h
Tmax [1, 8]: 7.02 min
plasma half-life ([1]; patients, intravenous administration): ~120 min
t1/2 ([2]; Beagle dog, F, n=3, 1 mg/kg single IV, plasma LC/MS/MS, non-compartmental, mean (SD)): 0.668 (0.0312) h
AUC(0-inf) [2, 9]: 20,443 (2530) h*ng/mL
Cl_obs [2, 9]: 247 (32.9) mL/hr/kg
V [2, 9]: 230 (14.6) mL/kg
t1/2 [2, 9]: 0.648 (0.0486) h
AUC(0-inf) [2, 10]: 323,936 (25,283) h*ng/mL
t1/2 [2, 10]: 0.620 (0.0439) h
half-life ([2]; Beagle, dog, plasma, dogs, single intravenous dose, read-out: average half-life): ~40 min
C0 [2, 11]: 4780 ng/mL
AUC(0-inf) ([2]; female, Beagle dog, F, n=3, 1 mg/kg single IV, plasma LC/MS/MS, non-compartmental, mean (SD), read-out: AUC0-inf): 3950 ng·h/mL
clearance [2, 11]: 4.25 mL/min/kg
Vd [2, 11]: 0.253 L/kg
C0 ([2]; female, Beagle dog, F, n=3, 5 mg/kg single IV, plasma LC/MS/MS, non-compartmental, mean (SD)): 25100 ng/mL
C0 [2, 12]: 476000 ng/mL
clearance [2, 12]: 3.88 mL/min/kg
Vd [2, 12]: 0.208 L/kg
C0 [2, 13]: 6010 ng/mL
AUC(0-inf) ([2]; male, Beagle dog, M, n=3, 1 mg/kg single IV, plasma LC/MS/MS, non-compartmental, mean (SD), read-out: AUC0-inf): 4030 ng·h/mL
clearance [2, 13]: 4.22 mL/min/kg
Vd [2, 13]: 0.241 L/kg
half-life ([2]; male, Beagle dog, M, n=3, 1 mg/kg single IV, plasma LC/MS/MS, non-compartmental, mean (SD), read-out: t1/2 (converted)): 39.9 min
C0 [2, 14]: 30200 ng/mL
AUC(0-inf) ([2]; male, Beagle dog, M, n=3, 5 mg/kg single IV, plasma LC/MS/MS, non-compartmental, mean (SD), read-out: AUC0-inf): 20600 ng·h/mL
clearance [2, 14]: 4.05 mL/min/kg
Vd [2, 14]: 0.23 L/kg
half-life ([2]; male, Beagle dog, M, n=3, 5 mg/kg single IV, plasma LC/MS/MS, non-compartmental, mean (SD), read-out: t1/2 (converted)): 39.3 min
C0 [2, 15]: 461000 ng/mL
AUC(0-inf) ([2]; male, Beagle dog, M, n=5, 75 mg/kg single IV, plasma LC/MS/MS, non-compartmental, mean (SD), read-out: AUC0-inf): 327000 ng·h/mL
clearance [2, 15]: 3.83 mL/min/kg
Vd [2, 15]: 0.204 L/kg
half-life ([2]; male, Beagle dog, M, n=5, 75 mg/kg single IV, plasma LC/MS/MS, non-compartmental, mean (SD), read-out: t1/2 (converted)): 36.9 min
